# Data published in patent US9271487B2, “Protein stabilized antimicrobial composition formed by melt processing” (Kimberly-Clark Worldwide, Inc., priority 2010, dated 2016).
# Experiment: Thymol Concentrations in Extractions (thymol released into liquid, HPLC)
# Assay type: physicochemical
# Details: neat thymol <250 microns, 2 g, 30 mins
# Experimental: An aliquot of a sample was centrifuged at approximately 5000 rpm until visible settling occurred (approximately 30 minutes). […]. The contents were dissolved and diluted with a 0.1% AA:IPA (50:50) solution to volume. The solution was then filtered with Pall Acrodisc 0.45 micron nylon membrane. The thymol concentration was determined through “High Performance Liquid Chromatography (HPLC) analysis” according to the following conditions:
# HPLC Equipment & Conditions
# HPLC: Agilent 1100 HPLC system.
# Column: Phenomenex Luna NH2 (5 μm, 250 mm×4.6 mm)-ambient
# Detector: UV/Vis at 280 nm
# Mobile Phases: (75:25) (IPA: 0.1% acetic acid)
# Flow Rate: approximately 0.6 mL/min.
# Injection Volume: approximately 15 μL
structure (smiles),measurement,setting,value
"Cc1ccc(C(C)C)c(O)c1 [thymol, Thymol]",% Thymol (wt/wt) in extract solution,"0 g citric acid, 100 mL deionized water",0.084 % (wt/wt)
same,% Thymol (wt/wt) in extract solution,"1.14 g citric acid, 97 mL deionized water",0.081 % (wt/wt)
